Converted amounts (≈) assume the structure as drawn.
Assays:
[1] = tested on: histone H3 acetylation; assay: Histone H3 acetylation status in PBMCs; format: in vivo, patients; conditions: for normalized H3 acetylation values, mean increase: P < 0.01
[2] = tested on: histone H4 acetylation; assay: Histone H4 acetylation status in PBMCs; format: in vivo, patients; conditions: for normalized H4 acetylation values, mean increase: P < 0.01
[3] = tested on: EGFR pathway components; assay: EGFR pathway components in skin biopsies; format: in vivo, patients; conditions: romidepsin monotherapy
[4] = tested on: NSCLC cell lines; conditions: cited from earlier work
[5] = tested on: lung cancer; conditions: romidepsin monotherapy, previously treated lung cancer; cited from earlier work
[6] = phase 1 monotherapy trial; cited from earlier work
[7] = both 8 mg/m^2 and 10 mg/m^2 dose levels, P < 0.001

C/C=C1\NC(=O)[C@H]2CSSCC/C=C/[C@H](CC(=O)N[C@H](C(C)C)C(=O)N2)OC(=O)[C@H](C(C)C)NC1=O [romidepsin]
normalized H3 acetylation values, mean increase ([1]; 8 mg/m^2 cohort): 2.10 ± 0.71 | normalized H3 acetylation values, mean increase ([1]; 10 mg/m^2 cohort): 2.18 ± 1.09 | effect on H3 histone acetylation [1, 7]: concomitant increase | normalized H4 acetylation values, mean increase ([2]; 8 mg/m^2 cohort): 3.20 ± 2.40 | normalized H4 acetylation values, mean increase ([2]; 10 mg/m^2 cohort): 2.26 ± 0.47 | effect on H4 histone acetylation [2, 7]: concomitant increase | effect on expression of EGFR, MAPK, or phospho-MAPK [3]: no discernible effect | effect on expression of phosphorylated EGFR ([3]; day 3 pre-erlotinib, P = 0.09): trend toward decreased expression | maximum tolerated dose of romidepsin (in combination with erlotinib 150 mg orally daily, Days 1, 8, and 15 every 28 days, IV, with multi-drug antiemetic prophylaxis): 8 mg/m^2 | IC50 against NSCLC cell lines in vitro [4]: 2.25 ng/mL (≈ 4.16 nM) | patients who achieved stable disease [5]: 9 of 18 | dose-limiting toxicities [6]: grade 3 thrombocytopenia and fatigue

C#Cc1cccc(Nc2ncnc3cc(OCCOC)c(OCCOC)cc23)c1 [erlotinib]
Acneiform Rash, Possible Relationship to Erlotinib (human, in vivo): Y (7/7) | Acute kidney injury, Possible Relationship to Erlotinib (human, in vivo): Y (1/1) | Anorexia, Possible Relationship to Erlotinib (human, in vivo): Y (9/9) | Diarrhea, Possible Relationship to Erlotinib (human, in vivo): Y (9/11) | Dry Skin, Possible Relationship to Erlotinib (human, in vivo): Y (2/2) | Fatigue, Possible Relationship to Erlotinib (human, in vivo): Y (9/14) | Mouth Blister, Possible Relationship to Erlotinib (human, in vivo): Y (4/4) | Nausea, Possible Relationship to Erlotinib (human, in vivo): Y (4/14) | Vomiting, Possible Relationship to Erlotinib (human, in vivo): Y (5/14) | Weight Loss, Possible Relationship to Erlotinib (human, in vivo): Y (2/3) | ↑ Glucose, Possible Relationship to Erlotinib (human, in vivo): Y (1/3) | ↓ Hgb/Anemia, Possible Relationship to Erlotinib (human, in vivo): Y (2/5) | Dyspepsia, Possible Relationship to Erlotinib (in vivo): N | Sinus tachycardia, Possible Relationship to Erlotinib (in vivo): N | ↓ Potassium, Possible Relationship to Erlotinib (in vivo): N

Reference: paper PMC5125089 (Lung cancer (Amsterdam, Netherlands), 2015)
